{"source": "patent US12492163B2", "about": "“9H-fluorene derivatives or their pharmaceutically acceptable salts” (priority 2020, dated 2025)", "key": {"[1]": {"biological_target": "human recombinant beta-secretase (hBACE1) (Homo sapiens (Human), UniProt P56817)", "sequence (P56817 46-501)": "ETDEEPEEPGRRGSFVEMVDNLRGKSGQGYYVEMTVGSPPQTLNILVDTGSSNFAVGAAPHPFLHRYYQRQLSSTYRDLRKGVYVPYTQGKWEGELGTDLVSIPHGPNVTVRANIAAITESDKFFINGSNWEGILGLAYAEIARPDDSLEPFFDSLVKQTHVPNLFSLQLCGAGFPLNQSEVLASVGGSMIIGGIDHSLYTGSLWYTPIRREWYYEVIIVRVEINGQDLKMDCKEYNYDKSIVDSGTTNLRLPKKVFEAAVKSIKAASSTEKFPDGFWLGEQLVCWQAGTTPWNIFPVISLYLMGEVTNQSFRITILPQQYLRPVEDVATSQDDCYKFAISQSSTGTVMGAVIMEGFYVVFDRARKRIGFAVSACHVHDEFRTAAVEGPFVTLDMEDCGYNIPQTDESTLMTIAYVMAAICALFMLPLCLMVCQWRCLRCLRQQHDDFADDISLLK", "test": "FRET assay, inhibition of human recombinant beta-secretase", "assay_type": "biochemical", "conditions": "50 μM inhibitor concentration; read-out: hBACE-1 % inh", "how_it_was_run": "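hBACE1 (added as 1 U/ml solution) cleaves a rhodamine/quencher peptide based on the Swedish APP mutation in 50 mM sodium acetate pH 4.5, 60 min at 25 °C, stopped with 2.5 M sodium acetate; fluorescence at 576 nm. % inhibition from 0–60 min signal change versus enzyme-only blanks; screened at 50 μM in triplicate; IC50 by non-linear regression.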"}, "mGAT3": {"biological_target": "mGAT3 (Mus musculus (Mouse), UniProt P31649)", "sequence (P31649 whole entry)": "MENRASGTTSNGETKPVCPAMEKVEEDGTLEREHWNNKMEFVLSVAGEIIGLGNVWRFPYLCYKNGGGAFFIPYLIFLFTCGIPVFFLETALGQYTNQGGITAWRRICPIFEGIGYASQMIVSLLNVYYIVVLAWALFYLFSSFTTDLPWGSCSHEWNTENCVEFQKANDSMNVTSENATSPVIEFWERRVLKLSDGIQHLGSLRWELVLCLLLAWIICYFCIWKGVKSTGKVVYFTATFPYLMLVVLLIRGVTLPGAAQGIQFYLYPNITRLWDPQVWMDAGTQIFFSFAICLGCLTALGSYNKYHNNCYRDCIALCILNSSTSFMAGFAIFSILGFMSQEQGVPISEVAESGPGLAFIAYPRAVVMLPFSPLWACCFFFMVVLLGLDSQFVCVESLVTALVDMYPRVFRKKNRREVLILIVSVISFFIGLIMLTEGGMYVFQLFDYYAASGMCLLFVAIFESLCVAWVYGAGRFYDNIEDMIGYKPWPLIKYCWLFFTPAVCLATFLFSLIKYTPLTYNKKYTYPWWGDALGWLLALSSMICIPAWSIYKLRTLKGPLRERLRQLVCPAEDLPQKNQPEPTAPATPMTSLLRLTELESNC", "test": "[3H]GABA uptake inhibition, mGAT3 in HEK293 cells", "assay_type": "cell-based", "conditions": "GABA reuptake", "description": "(§1) Exemplary compounds according to the invention were screened at the Ludwig-Maximilian University of Munich to determine the inhibitory ability towards four mouse GAT transporters (mGAT1-mGAT4). […] The biological material was stably transfected human embryonic kidney HEK293 cells, expressing genes to the appropriate transporters. The generated radioactivity was measured with a liquid scintillation counter. […] These determinations were made according to the procedure described in detail in A. Kragler, G. Höfner, K. T. Wanner, Novel parent structures for inhibitors of the murine GABA transporters mGAT3 and mGAT4, Eur. J. Pharmacol. 519 (2005) 43-47."}, "C57BL/6J mice": {"test_system": "C57BL/6J mice", "test": "Morris water maze test (scopolamine)", "assay_type": "in vivo, Mus musculus", "description": "The research was conducted at the Department of Pharmacodynamics, Faculty of Pharmacy, Jagiellonian University in Krakow. All procedures were approved by the 1st and 2nd Local Ethics Committee for Animal Experiments in Krakow (consent no. 53/2017 and 250/2019) and were performed in accordance with the applicable European Union regulation (86/609/EEC). Males of two different strains of domestic mice (Mus musculus) were used in the study: Albino Swiss CD-1 (body weight approx. 20-24 g, age approx. 6 weeks) and C57BL/6J mice (body weight approx. 18-22 g, age approx. 6 weeks). […]\nAt this stage of the study, each mouse underwent four trials every day (trial interval approx. 1 hour). […] During the acquisition (learning) phase, the time and distance traveled to find the platform were measured. Additionally, the trajectories of movement in the pool were analyzed. […] The latency of finding the place where the platform was previously (during the acquisition/learning phase) was measured, as well as the number of crossings through the zone, where the platform was in the acquisition phase. In addition, the total residence time and distance traveled in the relevant quadrant of the pool (in the NW zone where the platform was at the time of acquisition) were measured, as well as the speed and total distance traveled by the animal during the 60 s of the test. […]"}, "mGAT1": {"biological_target": "mGAT1 (Mus musculus (Mouse), UniProt P31648)", "test": "[3H]GABA uptake inhibition, mGAT1 in HEK293 cells", "assay_type": "cell-based", "conditions": "GABA reuptake", "description": "as §1"}}}
{"smiles": "O[C@H](CNCC1CC1)[C@H](Cc1ccccc1)NC1c2ccccc2-c2ccccc21", "note": "[JT-3, (2R,3S)-3-((9H-fluoren-9-yl)amino)-1-((cyclopropylmethyl)amino)-4-phenylbutan-2-ol]", "values": [{"measurement": "inhibition at 50 µM", "setting": "[1]", "result": 61.3, "unit": "%"}, {"measurement": "pIC50 (+/−SEM) mGAT3", "setting": "mGAT3", "result": "5.13 +/− 0.04"}, {"measurement": "latency to find the hidden platform, acquisition phase vs scopolamine control", "setting": "C57BL/6J mice; 10 mg/kg i.p., fifth day of the test, p<0.01", "result": "statistically significant difference"}, {"measurement": "recall phase parameters (time, crossings, distance, entries in NW zone)", "setting": "C57BL/6J mice; seventh day, 10 mg/kg i.p. on days 1-6", "result": "did not affect any of the parameters studied"}, {"measurement": "pIC50 (+/−SEM) mGAT1", "setting": "mGAT1", "result": 4.96}]}
